In ChEMBL document CHEMBL1201862, “PubChem BioAssay data set” (2004):
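Each compound was tested at five concentrations against cells in 96-well plates for 48 hours. Abbreviation: GI50, concentration required for 50% inhibition of growth.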 The source made the active and inactive calls. Rule as the data show it: active = GI50 up to about 1.1 µM and inactive = higher.

What was measured:
Assay in all cases: DTP human tumour cell line panel, 48 h
786-0 = system: 786-0
A498 = system: A498
A549 = system: A549
ACHN = system: ACHN
BT-549 = system: BT-549
CAKI-1 = system: CAKI-1
CCRF-CEM = system: CCRF-CEM
COLO 205 = system: COLO 205
DU-145 = system: DU-145
EKVX = system: EKVX
HCT-116 = system: HCT-116
HCT-15 = system: HCT-15
HL-60 = system: HL-60
HOP-62 = system: HOP-62
HOP-92 = system: HOP-92
HT-29 = system: HT-29
Hs-578T = system: Hs-578T
IGROV-1 = system: IGROV-1
K562 = system: K562
KM12 = system: KM12
LOX IMVI = system: LOX IMVI
M14 = system: M14
MCF7 = system: MCF7
MDA-MB-231 = system: MDA-MB-231
MDA-MB-435 = system: MDA-MB-435
MDA-N = system: MDA-N
MOLT-4 = system: MOLT-4
Malme-3M = system: Malme-3M
NCI-H226 = system: NCI-H226
NCI-H23 = system: NCI-H23
NCI-H460 = system: NCI-H460
NCI-H522 = system: NCI-H522
NCI/ADR-RES = system: NCI/ADR-RES
OVCAR-3 = system: OVCAR-3
OVCAR-4 = system: OVCAR-4
OVCAR-5 = system: OVCAR-5
OVCAR-8 = system: OVCAR-8
PC-3 = system: PC-3
RPMI-8226 = system: RPMI-8226
RXF 393 = system: RXF 393
SF-268 = system: SF-268
SF-295 = system: SF-295
SK-MEL-28 = system: SK-MEL-28
SK-MEL-2 = system: SK-MEL-2
SK-MEL-5 = system: SK-MEL-5
SN12C = system: SN12C
SNB-19 = system: SNB-19
SW-620 = system: SW-620
T47D = system: T47D
TK-10 = system: TK-10
U-251 = system: U-251
UACC-257 = system: UACC-257
UACC-62 = system: UACC-62
UO-31 = system: UO-31
SF-539 = system: SF-539
SK-OV-3 = system: SK-OV-3
SNB-75 = system: SNB-75
HCC 2998 = system: HCC 2998

SMILES: O=c1[nH]nc(Cc2ccc(Cl)cc2)n1/N=C\c1ccc(/C=N/n2c(Cc3ccc(Cl)cc3)n[nH]c2=O)cc1
- GI50 (786-0): 13.3 µM (inactive)
- GI50 (A498): > 100 µM (inactive)
- GI50 (A549): > 100 µM (inactive)
- GI50 (ACHN): 29.9 µM (inactive)
- GI50 (BT-549): > 100 µM (inactive)
- GI50 (CAKI-1): 33.3 µM (inactive)
- GI50 (CCRF-CEM): > 100 µM (inactive)
- GI50 (COLO 205): > 100 µM (inactive)
- GI50 (DU-145): > 100 µM (inactive)
- GI50 (EKVX): > 100 µM (inactive)
- GI50 (HCT-116): > 100 µM (inactive)
- GI50 (HCT-15): > 100 µM
- GI50 (HL-60): > 100 µM (inactive)
- GI50 (HOP-62): 17 µM (inactive)
- GI50 (HOP-92): 28.3 µM (inactive)
- GI50 (HT-29): > 100 µM (inactive)
- GI50 (Hs-578T): 35.7 µM (inactive)
- GI50 (IGROV-1): > 100 µM (inactive)
- GI50 (K562): > 100 µM (inactive)
- GI50 (KM12): > 100 µM (inactive)
- GI50 (LOX IMVI): > 100 µM (inactive)
- GI50 (M14): > 100 µM (inactive)
- GI50 (MCF7): > 100 µM (inactive)
- GI50 (MDA-MB-231): 17.2 µM (inactive)
- GI50 (MDA-MB-435): > 100 µM (inactive)
- GI50 (MDA-N): > 100 µM (inactive)
- GI50 (MOLT-4): > 100 µM (inactive)
- GI50 (Malme-3M): > 100 µM (inactive)
- GI50 (NCI-H226): 96.6 µM (inactive)
- GI50 (NCI-H23): > 100 µM (inactive)
- GI50 (NCI-H460): > 100 µM (inactive)
- GI50 (NCI-H522): > 100 µM (inactive)
- GI50 (NCI/ADR-RES): 90.2 µM (inactive)
- GI50 (OVCAR-3): 81.7 µM (inactive)
- GI50 (OVCAR-4): 76.4 µM (inactive)
- GI50 (OVCAR-5): > 100 µM (inactive)
- GI50 (OVCAR-8): 54 µM (inactive)
- GI50 (PC-3): > 100 µM (inactive)
- GI50 (RPMI-8226): > 100 µM (inactive)
- GI50 (RXF 393): 29.7 µM (inactive)
- GI50 (SF-268): 37.9 µM (inactive)
- GI50 (SF-295): > 100 µM (inactive)
- GI50 (SK-MEL-28): > 100 µM (inactive)
- GI50 (SK-MEL-2): 38.5 µM (inactive)
- GI50 (SK-MEL-5): > 100 µM (inactive)
- GI50 (SN12C): 57.3 µM (inactive)
- GI50 (SNB-19): 50.7 µM (inactive)
- GI50 (SW-620): > 100 µM (inactive)
- GI50 (T47D): > 100 µM (inactive)
- GI50 (TK-10): 0.855 µM (active)
- GI50 (U-251): 26.6 µM (inactive)
- GI50 (UACC-257): > 100 µM (inactive)
- GI50 (UACC-62): > 100 µM (inactive)
- GI50 (UO-31): > 100 µM (inactive)

SMILES: C=CCCON(C(=O)OC(C)(C)C)C(C)(C)C
- GI50 (786-0): > 100 µM (inactive)
- GI50 (A498): > 100 µM (inactive)
- GI50 (A549): > 100 µM (inactive)
- GI50 (ACHN): > 100 µM (inactive)
- GI50 (BT-549): > 100 µM (inactive)
- GI50 (CAKI-1): > 100 µM (inactive)
- GI50 (CCRF-CEM): > 100 µM (inactive)
- GI50 (COLO 205): > 100 µM (inactive)
- GI50 (DU-145): > 100 µM (inactive)
- GI50 (EKVX): > 100 µM (inactive)
- GI50 (HCT-116): > 100 µM (inactive)
- GI50 (HCT-15): > 100 µM
- GI50 (HL-60): > 100 µM (inactive)
- GI50 (HOP-62): > 100 µM (inactive)
- GI50 (HOP-92): > 100 µM (inactive)
- GI50 (HT-29): > 100 µM (inactive)
- GI50 (Hs-578T): > 100 µM (inactive)
- GI50 (IGROV-1): > 100 µM (inactive)
- GI50 (K562): > 100 µM (inactive)
- GI50 (KM12): > 100 µM (inactive)
- GI50 (LOX IMVI): > 100 µM (inactive)
- GI50 (M14): > 100 µM (inactive)
- GI50 (MDA-MB-231): > 100 µM (inactive)
- GI50 (MDA-MB-435): > 100 µM (inactive)
- GI50 (MDA-N): > 100 µM (inactive)
- GI50 (MOLT-4): > 100 µM (inactive)
- GI50 (Malme-3M): > 100 µM (inactive)
- GI50 (NCI-H226): > 100 µM (inactive)
- GI50 (NCI-H23): > 100 µM (inactive)
- GI50 (NCI-H460): > 100 µM (inactive)
- GI50 (NCI-H522): > 100 µM (inactive)
- GI50 (NCI/ADR-RES): > 100 µM (inactive)
- GI50 (OVCAR-3): > 100 µM (inactive)
- GI50 (OVCAR-5): > 100 µM (inactive)
- GI50 (OVCAR-8): > 100 µM (inactive)
- GI50 (PC-3): > 100 µM (inactive)
- GI50 (RPMI-8226): > 100 µM (inactive)
- GI50 (RXF 393): > 100 µM (inactive)
- GI50 (SF-268): > 100 µM (inactive)
- GI50 (SF-295): > 100 µM (inactive)
- GI50 (SF-539): > 100 µM (inactive)
- GI50 (SK-MEL-28): > 100 µM (inactive)
- GI50 (SK-MEL-2): > 100 µM (inactive)
- GI50 (SK-MEL-5): > 100 µM (inactive)
- GI50 (SK-OV-3): > 100 µM (inactive)
- GI50 (SN12C): > 100 µM (inactive)
- GI50 (SNB-19): > 100 µM (inactive)
- GI50 (SNB-75): > 100 µM (inactive)
- GI50 (SW-620): > 100 µM (inactive)
- GI50 (T47D): > 100 µM (inactive)
- GI50 (TK-10): > 100 µM (inactive)
- GI50 (U-251): > 100 µM (inactive)
- GI50 (UACC-257): > 100 µM (inactive)
- GI50 (UACC-62): > 100 µM (inactive)
- GI50 (UO-31): > 100 µM (inactive)

SMILES: CC1(C)C2CC(O)C1CCC2=O (stereo not drawn)
- GI50 (786-0): > 100 µM (inactive)
- GI50 (A498): > 100 µM (inactive)
- GI50 (A549): > 100 µM (inactive)
- GI50 (ACHN): > 100 µM (inactive)
- GI50 (BT-549): > 100 µM (inactive)
- GI50 (CAKI-1): > 100 µM (inactive)
- GI50 (CCRF-CEM): > 100 µM (inactive)
- GI50 (COLO 205): > 100 µM (inactive)
- GI50 (DU-145): > 100 µM (inactive)
- GI50 (HCC 2998): > 100 µM (inactive)
- GI50 (HCT-116): > 100 µM (inactive)
- GI50 (HCT-15): > 100 µM
- GI50 (HL-60): > 100 µM (inactive)
- GI50 (HOP-62): > 100 µM (inactive)
- GI50 (HT-29): > 100 µM (inactive)
- GI50 (Hs-578T): > 100 µM (inactive)
- GI50 (K562): > 100 µM (inactive)
- GI50 (KM12): > 100 µM (inactive)
- GI50 (LOX IMVI): > 100 µM (inactive)
- GI50 (M14): > 100 µM (inactive)
- GI50 (MCF7): > 100 µM (inactive)
- GI50 (MDA-MB-231): > 100 µM (inactive)
- GI50 (MDA-MB-435): > 100 µM (inactive)
- GI50 (MDA-N): > 100 µM (inactive)
- GI50 (MOLT-4): > 100 µM (inactive)
- GI50 (Malme-3M): > 100 µM (inactive)
- GI50 (NCI-H226): > 100 µM (inactive)
- GI50 (NCI-H23): > 100 µM (inactive)
- GI50 (NCI-H460): > 100 µM (inactive)
- GI50 (NCI-H522): > 100 µM (inactive)
- GI50 (NCI/ADR-RES): > 100 µM (inactive)
- GI50 (OVCAR-3): > 100 µM (inactive)
- GI50 (OVCAR-4): > 100 µM (inactive)
- GI50 (OVCAR-5): > 100 µM (inactive)
- GI50 (OVCAR-8): > 100 µM (inactive)
- GI50 (PC-3): > 100 µM (inactive)
- GI50 (RPMI-8226): > 100 µM (inactive)
- GI50 (RXF 393): > 100 µM (inactive)
- GI50 (SF-268): > 100 µM (inactive)
- GI50 (SF-295): > 100 µM (inactive)
- GI50 (SF-539): > 100 µM (inactive)
- GI50 (SK-MEL-28): > 100 µM (inactive)
- GI50 (SK-MEL-2): > 100 µM (inactive)
- GI50 (SK-MEL-5): > 100 µM (inactive)
- GI50 (SK-OV-3): > 100 µM (inactive)
- GI50 (SN12C): > 100 µM (inactive)
- GI50 (SNB-19): > 100 µM (inactive)
- GI50 (SNB-75): > 100 µM (inactive)
- GI50 (T47D): > 100 µM (inactive)
- GI50 (TK-10): > 100 µM (inactive)
- GI50 (U-251): > 100 µM (inactive)
- GI50 (UACC-257): > 100 µM (inactive)
- GI50 (UACC-62): > 100 µM (inactive)
- GI50 (UO-31): > 100 µM (inactive)
